IC50 data for 17 molecules are collected here from US20240132489A1, “AROMATIC HETEROCYCLIC COMPOUND, PHARMACEUTICAL COMPOSITION, AND USE THEREOF” (GT APEIRON THERAPEUTICS LIMITED, priority 2020, published 2024).

Assay [1] addresses CDK7/cyclin H/MAT1 complex (Homo sapiens (Human), UniProt P50613). Nature of the assay: In vitro enzymatic inhibitory activity test, CDK7. Format: biochemical. The conditions noted are these: Caliper mobility shift, 180 min at 27° C.
Assay [2] has as its system HCC70 cells. Nature of the assay: Cell bioactivity detection (CyQuant), HCC70. Format: cell-based. The conditions noted are these: human breast cancer cells HCC70, 72 hours. The method in brief: (§1)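 A2780 or HCC70 cells (2000/well, RPMI 1640 + 10% FBS) were seeded overnight, then treated for 72 h at 37° C, 5% CO2 with compound: top 10 μM, 1:4 dilutions, 9 points, 0.2% DMSO. Viable cell number was measured by CyQuant Direct nucleic-acid staining (≥60 min, 37° C) on an Acumen reader at 488 nm excitation, and IC50 was calculated.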

Assay [3] concerns the target CDK2/cyclin E1 complex (Homo sapiens (Human), UniProt P24941). The assay can be described thus: In vitro enzymatic inhibitory activity test, CDK2. Format: biochemical. Particulars: Caliper mobility shift, 180 min at 27° C.
Assay [4] concerns the target CDK12(aa686-1082)/cyclin K complex (Homo sapiens (Human), UniProt Q9NYV4). The assay can be described thus: In vitro enzymatic inhibitory activity test, CDK12. Format: biochemical. Particulars: Caliper mobility shift, 180 min at 27° C.
Assay [5] has as its system A2780 cells. The assay can be described thus: Cell bioactivity detection (CyQuant), A2780. Format: cell-based, human. Particulars: ovarian carcinoma cells A2780, 72 hours. The method in brief:
as §1

For assay [6], the target named is CDK9/CyclinT1 (Homo sapiens (Human), UniProt P50750). Nature of the assay: In vitro enzymatic inhibitory activity test, CDK9. The conditions noted are these: Caliper mobility shift, 180 min at 27° C. Format: biochemical.
Sequence of CDK9/CyclinT1 (P50750 whole entry, species assumed): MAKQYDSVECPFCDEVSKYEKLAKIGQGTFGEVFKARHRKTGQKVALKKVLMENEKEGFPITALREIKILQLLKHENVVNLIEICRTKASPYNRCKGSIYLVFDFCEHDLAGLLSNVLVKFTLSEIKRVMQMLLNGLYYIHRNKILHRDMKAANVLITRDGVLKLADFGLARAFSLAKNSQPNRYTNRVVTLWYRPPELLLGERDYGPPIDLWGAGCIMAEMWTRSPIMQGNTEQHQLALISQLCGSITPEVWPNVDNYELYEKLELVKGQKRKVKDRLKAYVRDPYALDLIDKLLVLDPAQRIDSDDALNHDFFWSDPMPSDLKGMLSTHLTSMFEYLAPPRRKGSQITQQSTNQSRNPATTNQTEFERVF
Sequence of CDK9/CyclinT1 (O60563 whole entry partner, species assumed): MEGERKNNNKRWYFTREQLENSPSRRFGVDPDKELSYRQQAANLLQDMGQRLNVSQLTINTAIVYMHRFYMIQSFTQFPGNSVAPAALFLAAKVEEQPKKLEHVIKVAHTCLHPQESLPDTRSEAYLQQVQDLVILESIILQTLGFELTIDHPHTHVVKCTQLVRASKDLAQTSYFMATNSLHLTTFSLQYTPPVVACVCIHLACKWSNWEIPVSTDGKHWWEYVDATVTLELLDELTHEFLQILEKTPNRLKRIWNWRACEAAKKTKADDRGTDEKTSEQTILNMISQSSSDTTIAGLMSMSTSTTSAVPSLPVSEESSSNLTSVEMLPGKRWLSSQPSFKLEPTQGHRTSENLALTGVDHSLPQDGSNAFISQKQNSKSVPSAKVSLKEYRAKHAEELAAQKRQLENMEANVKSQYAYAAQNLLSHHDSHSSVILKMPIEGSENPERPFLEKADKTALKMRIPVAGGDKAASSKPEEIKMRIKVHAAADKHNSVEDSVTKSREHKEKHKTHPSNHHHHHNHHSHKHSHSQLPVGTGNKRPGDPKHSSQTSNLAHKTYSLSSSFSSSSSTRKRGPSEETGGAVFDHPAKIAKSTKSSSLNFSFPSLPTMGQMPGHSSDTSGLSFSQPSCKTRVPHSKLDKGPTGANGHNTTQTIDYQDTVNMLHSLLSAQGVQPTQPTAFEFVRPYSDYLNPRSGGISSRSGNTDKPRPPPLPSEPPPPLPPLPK

Each structure is given as a SMILES string. Counter-ions that a name gives are not always drawn.

Sequence of CDK12(aa686-1082)/cyclin K complex (Q9NYV4 686-1082, species assumed): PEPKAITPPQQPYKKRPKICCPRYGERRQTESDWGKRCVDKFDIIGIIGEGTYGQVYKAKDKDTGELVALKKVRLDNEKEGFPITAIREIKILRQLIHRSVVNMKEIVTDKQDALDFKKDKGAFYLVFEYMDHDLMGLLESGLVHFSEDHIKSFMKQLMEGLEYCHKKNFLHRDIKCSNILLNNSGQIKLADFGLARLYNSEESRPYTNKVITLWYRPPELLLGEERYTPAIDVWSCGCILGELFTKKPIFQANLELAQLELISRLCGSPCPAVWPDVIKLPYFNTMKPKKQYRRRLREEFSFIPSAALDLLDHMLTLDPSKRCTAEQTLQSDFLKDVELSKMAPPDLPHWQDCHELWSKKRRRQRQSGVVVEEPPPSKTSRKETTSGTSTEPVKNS
Sequence of CDK12(aa686-1082)/cyclin K complex (O75909 whole entry partner, species assumed, the tested form may be a part): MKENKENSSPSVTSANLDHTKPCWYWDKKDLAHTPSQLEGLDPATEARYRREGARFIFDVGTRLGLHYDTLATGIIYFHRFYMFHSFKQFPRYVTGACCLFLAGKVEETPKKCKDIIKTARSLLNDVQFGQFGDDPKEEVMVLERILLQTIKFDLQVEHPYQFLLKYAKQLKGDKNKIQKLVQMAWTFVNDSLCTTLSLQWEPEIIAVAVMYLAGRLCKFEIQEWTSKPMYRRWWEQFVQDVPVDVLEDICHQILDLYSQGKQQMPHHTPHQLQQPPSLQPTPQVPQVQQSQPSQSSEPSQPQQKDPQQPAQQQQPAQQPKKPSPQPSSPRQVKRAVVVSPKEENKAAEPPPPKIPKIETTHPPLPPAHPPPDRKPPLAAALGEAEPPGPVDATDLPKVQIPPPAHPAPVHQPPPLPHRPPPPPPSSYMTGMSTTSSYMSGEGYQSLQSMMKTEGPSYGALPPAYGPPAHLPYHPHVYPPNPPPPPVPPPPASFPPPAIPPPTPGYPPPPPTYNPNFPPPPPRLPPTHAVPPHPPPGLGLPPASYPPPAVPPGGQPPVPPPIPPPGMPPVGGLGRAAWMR
Sequence of CDK7/cyclin H/MAT1 complex (P50613 whole entry, species assumed): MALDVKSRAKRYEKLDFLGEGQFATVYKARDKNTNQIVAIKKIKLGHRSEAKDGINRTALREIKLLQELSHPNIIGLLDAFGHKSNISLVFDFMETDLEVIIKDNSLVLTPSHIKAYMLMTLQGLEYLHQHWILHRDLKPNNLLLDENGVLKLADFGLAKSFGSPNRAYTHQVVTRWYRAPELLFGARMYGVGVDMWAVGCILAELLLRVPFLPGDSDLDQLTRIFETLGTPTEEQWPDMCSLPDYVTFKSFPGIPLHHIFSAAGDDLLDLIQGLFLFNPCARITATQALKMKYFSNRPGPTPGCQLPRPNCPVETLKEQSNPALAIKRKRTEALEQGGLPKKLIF
Sequence of CDK7/cyclin H/MAT1 complex (P51946 whole entry partner, species assumed): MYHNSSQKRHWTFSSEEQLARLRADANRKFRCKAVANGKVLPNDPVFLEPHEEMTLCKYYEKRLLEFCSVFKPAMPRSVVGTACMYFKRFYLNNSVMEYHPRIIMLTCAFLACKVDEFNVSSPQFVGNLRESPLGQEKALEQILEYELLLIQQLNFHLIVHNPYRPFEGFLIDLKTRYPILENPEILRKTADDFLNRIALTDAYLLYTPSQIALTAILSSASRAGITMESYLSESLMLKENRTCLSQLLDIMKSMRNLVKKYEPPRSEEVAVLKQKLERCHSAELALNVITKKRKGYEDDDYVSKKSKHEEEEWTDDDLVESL
Sequence of CDK7/cyclin H/MAT1 complex (P51948 whole entry partner, species assumed): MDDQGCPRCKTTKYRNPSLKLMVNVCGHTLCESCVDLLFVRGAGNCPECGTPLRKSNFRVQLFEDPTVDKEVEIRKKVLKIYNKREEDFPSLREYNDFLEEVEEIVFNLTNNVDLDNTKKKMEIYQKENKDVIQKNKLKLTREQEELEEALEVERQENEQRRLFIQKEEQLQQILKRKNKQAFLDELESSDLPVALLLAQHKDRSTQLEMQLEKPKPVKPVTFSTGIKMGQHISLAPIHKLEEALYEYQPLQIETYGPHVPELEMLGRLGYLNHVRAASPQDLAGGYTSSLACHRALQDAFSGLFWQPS

Usually IC50 stands for the midpoint of a concentration-inhibition curve. For the molecule `FC(F)(F)c1cnc(N[C@H]2CCCNC2)nc1-c1c[nH]c2nc(C3CCOCC3)ccc12` [Compound 28, (S)—N-(piperidin-3-yl)-4-(6-(tetrahydro-2H-pyran-4-yl)-1H-pyrrolo[2,3-b]pyridin-3-yl)-5-(trifluoromethyl)pyrimidine-2-amine formate], the IC50 worked out at 6.96 nM in assay [1]; 7.7 nM in assay [2] (Homo sapiens, HCC70, 72 h); 3470 nM in assay [3]; 1100 nM in assay [4]; 7.8 nM in assay [5] (Homo sapiens, A2780, 72 h); 3630 nM in assay [6].
`FC(F)(F)c1cnc(N[C@H]2CCCNC2)nc1-c1c[nH]c2nc(C3CCOC3)ccc12` (stereo partly drawn) [Compound 29, N—((S)-piperidin-3-yl)-4-(6-(tetrahydrofuran-3-yl)-1H-pyrrol[2,3-b]pyridin-3-yl)-5-(trifluoromethyl)pyrimidine-2-amine formate]: the IC50 in assay [1] is 7.08 nM; in assay [2] (Homo sapiens, HCC70, 72 h), 3.1 nM; in assay [3] it was 1260 nM; in assay [4], 855 nM; in assay [5] (Homo sapiens, A2780, 72 h), 2.1 nM; in assay [6], 2480 nM.
On to `FC(F)(F)c1cnc(N[C@H]2CCCNC2)nc1-c1c[nH]c2nc(C3CCCCO3)ccc12` (stereo partly drawn) [Compound 30, N—((S)-piperidin-3-yl)-4-(6-(tetrahydropyran-2-yl)-1H-pyrrolo[2,3-b]pyridin-3-yl)-5-(trifluoromethyl)pyrimidine-2-amine formate], for which the IC50 in assay [1] stood at 10.5 nM; in assay [2] (Homo sapiens, HCC70, 72 h), 20 nM; in assay [3], 3260 nM; in assay [4], 2150 nM; in assay [5] (Homo sapiens, A2780, 72 h), 5.6 nM; in assay [6] it was 9530 nM.
`FC(F)(F)c1cnc(N[C@H]2CCCNC2)nc1-c1c[nH]c2nc(C34CCOCC3C4)ccc12` (stereo partly drawn) [Compound 31, 4-(6-(3-oxabicyclo[4.1.0]heptan-6-yl)-1H-pyrrolo[2,3-b]pyridin-3-yl)-N—((S)-piperidin-3-yl)-5-(trifluoromethyl)pyrimidine-2-amine formate]: the IC50 in assay [1] came out at 8.13 nM; in assay [2] (Homo sapiens, HCC70, 72 h) it was 5.8 nM; in assay [3], 968 nM; in assay [4], 517 nM; in assay [5] (Homo sapiens, A2780, 72 h) it was 4.1 nM; in assay [6] it was 1480 nM.
In the case of `FC(F)(F)c1cnc(N[C@H]2CCCNC2)nc1-c1c[nH]c2nc(N3CC4CCC3CO4)ccc12` (stereo partly drawn) [Compound 32, 4-(6-(2-oxo-5-azabicyclo[2.2.2]octan-5-yl)-1H-pyrrol[2,3-b]pyridin-3-yl)-N—((S)-piperidin-3-yl)-5-(trifluoromethyl)pyrimidine-2-amine], the IC50 in assay [1] came to 19.9 nM; in assay [2] (Homo sapiens, HCC70, 72 h) it was 24 nM; in assay [3], 3630 nM; in assay [4] it was 3430 nM; in assay [5] (Homo sapiens, A2780, 72 h) it was 6.3 nM; in assay [6] it was 6520 nM.
Regarding `FC(F)(F)c1cnc(N[C@H]2CCCNC2)nc1-c1c[nH]c2nc(N3CCOC[C@@H]3C(F)(F)F)ccc12` [Compound 33, N—((S)-piperidin-3-yl)-5-(trifluoromethyl)-4-(6-((R)-3-(trifluoromethyl)morpholinyl)-1H-pyrrol[2,3-b]pyridin-3-yl)pyrimidine-2-amine], the IC50 in assay [1] worked out at 46.8 nM; in assay [2] (Homo sapiens, HCC70, 72 h), 12 nM; in assay [3], 3230 nM; in assay [4], 2010 nM; in assay [5] (Homo sapiens, A2780, 72 h), 2.4 nM; in assay [6] it was 4430 nM.
For the molecule `FC(F)(F)c1cnc(N[C@H]2CCCNC2)nc1-c1c[nH]c2nc(N3CC4CC(C3)O4)ccc12` [Compound 34, 4-(6-(6-oxo-3-azabicyclo[3.1.1]heptan-3-yl)-1H-pyrrol[2,3-b]pyridin-3-yl)-N—((S)-piperidin-3-yl)-5-(trifluoromethyl)pyrimidine-2-amine], the IC50 in assay [1] stood at 40.2 nM; in assay [2] (Homo sapiens, HCC70, 72 h) it was 15 nM; in assay [3], 1270 nM; in assay [4] it was 1090 nM; in assay [5] (Homo sapiens, A2780, 72 h) it was 3.3 nM; in assay [6], 1660 nM.
In the case of `FC(F)(F)c1cnc(N[C@@H]2CN3CCC2CC3)nc1-c1c[nH]c2nc(N3CCOCC3)ccc12` [Compound 44, (S)—N-(4-(6-morpholinyl-1H-pyrrol[2,3-b]pyridin-3-yl)-5-(trifluoromethyl)pyrimidin-2-yl)quinine-3-amine formate], the IC50 in assay [1] is 131 nM; in assay [2] (Homo sapiens, HCC70, 72 h), 684 nM; in assay [3], greater than 10000 nM; in assay [4], 4460 nM; in assay [5] (Homo sapiens, A2780, 72 h), 253 nM; in assay [6] it was 3650 nM.
As to `CC1(C)CC[C@H](Nc2ncc(C(F)(F)F)c(-c3c[nH]c4nc(N5CCOCC5)ccc34)n2)CN1` [Compound 60, (S)—N-(6,6-dimethylpiperidin-3-yl)-4-(6-morpholinyl-1H-pyrrol[2,3-b]pyridin-3-yl)-5-(trifluoromethyl)pyrimidine-2-amine], the IC50 was 8.79 nM in assay [1]; 475 nM in assay [2] (Homo sapiens, HCC70, 72 h); greater than 10000 nM in assay [3]; greater than 10000 nM in assay [4]; 36 nM in assay [5] (Homo sapiens, A2780, 72 h); 8070 nM in assay [6].
As to `C[C@H]1COCCN1c1ccc2c(-c3nc(N[C@H]4CCC5(CC5)NC4)ncc3C(F)(F)F)c[nH]c2n1` [Compound 70, (S)—N-(4-(6-((S)-3-methylmorpholinyl)-1H-pyrrol[2,3-b]pyridin-3-yl)-5-(trifluoromethyl)pyrimidin-2-yl)-4-azaspiro[2.5]octan-6-amine formate], the IC50 is 41.2 nM in assay [1]; 484 nM in assay [2] (Homo sapiens, HCC70, 72 h); 37600 nM in assay [3]; 49000 nM in assay [4]; 146 nM in assay [5] (Homo sapiens, A2780, 72 h); greater than 50000 nM in assay [6].
As to `C[C@H]1COCCN1c1ccc2c(-c3nc(N[C@@H]4CNCC(F)(F)C4)ncc3C(F)(F)F)c[nH]c2n1` [Compound 71, N—((S)-5,5-difluoropiperidin-3-yl)-4-(6-((S)-3-methylmorpholinyl)-1H-pyrrol[2,3-b]pyridin-3-yl)-5-(trifluoromethyl)pyrimidine-2-amine], the IC50 in assay [1] was 31.7 nM; in assay [2], 390 nM; in assay [3] it was 9300 nM; in assay [4], 6680 nM; in assay [5], 547 nM; in assay [6] it was greater than 50000 nM.
Turning to `C[C@H]1CNC[C@@H](Nc2ncc(C(F)(F)F)c(-c3c[nH]c4nc(N5CCOC[C@@H]5C)ccc34)n2)C1` [Compound 72, 4-(6-((S)-3-methylmorpholinyl)-1H-pyrrol[2,3-b]pyridin-3-yl)-N-((3S,5R)-5-methylpiperidin-3-yl)-5-(trifluoromethyl)pyrimidine-2-amine], the IC50 worked out at 17.6 nM in assay [1]; 21 nM in assay [2]; 3350 nM in assay [3]; 2540 nM in assay [4]; 2.8 nM in assay [5]; 1820 nM in assay [6].
Consider `C[C@H]1COCCN1c1ccc2c(-c3nc(N[C@@H]4CNC[C@@H](F)C4)ncc3C(F)(F)F)c[nH]c2n1` [Compound 73, N-((3S,5S)-5-fluoropyridin-3-yl)-4-(6-((S)-3-methylmorpholinyl)-1H-pyrrol[2,3-b]pyridin-3-yl)-5-(trifluoromethyl)pyrimidine-2-amine], for which the IC50 is 11.5 nM in assay [1]; 35 nM in assay [2]; 4290 nM in assay [3]; 3380 nM in assay [4]; 6.2 nM in assay [5]; 3350 nM in assay [6].
With `C[C@H]1COCCN1c1ccc2c(-c3nc(N[C@@H]4CNC[C@H](F)C4)ncc3C(F)(F)F)c[nH]c2n1` [Compound 74], the half-inhibitory concentration (IC50) in assay [1] was 10.2 nM; in assay [2], 199 nM; in assay [3], 27300 nM; in assay [4], 12000 nM; in assay [5], 177 nM; in assay [6], greater than 50000 nM.
For `C[C@H]1COCCN1c1nc2[nH]cc(-c3nc(N[C@H]4CCCNC4)ncc3C(F)(F)F)c2cc1F` [Compound 75, 4-(5-fluoro-6-((S)-3-methylmorpholinyl)-1H-pyrrol[2,3-b]pyridin-3-yl)-N—((S)-piperidin-3-yl)-5-(trifluoromethyl)pyrimidine-2-amine formate], the IC50 in assay [1] is 8.5 nM; in assay [2] (Homo sapiens, HCC70, 72 h) it was 9.2 nM; in assay [3], 2380 nM; in assay [4] it was 3340 nM; in assay [5] (Homo sapiens, A2780, 72 h) it was 7.4 nM; in assay [6] it was 5930 nM.
On to `FC(F)(F)c1cnc(N[C@H]2CCCNC2)nc1-c1c[nH]c2cc(N3CCCC3)ccc12` [Compound 101, (S)—N-(Piperidin-3-Yl)-4-(6-(Pyrrolidin-1-Yl)-1H-Indol-3-Yl)-5-(Trifluoromethyl)Pyrimidine-2-Amine, reference compound], for which the IC50 in assay [1] is 28.5 nM; in assay [2] (Homo sapiens, HCC70, 72 h), 232 nM; in assay [3], greater than 10000 nM; in assay [4] it was 1600 nM; in assay [5] (Homo sapiens, A2780, 72 h) it was 157 nM; in assay [6], 4610 nM.
Take `FC(F)(F)c1cnc(N[C@H]2CCCNC2)nc1-c1c[nH]c2nc(N3C4COCC3C4)ccc12` [Compound 103, 4-(6-(3-oxo-6-azabicyclo[3.1.1]heptan-6-yl)-1H-pyrrol[2,3-b]pyridin-3-yl)-N—((S)-piperidin-3-yl)-5-(trifluoromethyl)pyrimidine-2-amine formate]: the IC50 stood at 7.26 nM in assay [1]; 22.3 nM in assay [2] (Homo sapiens, HCC70, 72 h); 2830 nM in assay [3]; 1390 nM in assay [4]; 18.2 nM in assay [5] (Homo sapiens, A2780, 72 h); 3680 nM in assay [6].
